We go through 18 compounds from patent publication US20250109139A1, “TRICYCLIC COMPOUND, AND PREPARATION METHOD THEREFOR AND USE THEREOF” (SHANGHAITECH UNIVERSITY, priority 2022, published 2025).

Experiment [1] has as its target T1, dopamine D2 receptors (Homo sapiens (Human), UniProt P14416). The experiment is described as follows: Dopamine D2 receptor β-arrestin2 BRET (recruitment). The following applies: for Emax: relative to endogenous ligand dopamine, read-out: β-arrestin2 BRET Emax % ± SEM. Type of experiment: cell-based. As for the experimental part: (§1) To examine the downstream G-protein signaling pathway mediated by dopamine D2 receptors, on the first day, a 6 cm culture dish was used for transfection with 1 μg of dopamine D2 receptors, 1 μg of Gαi1 containing C-terminal seaweed luciferase (Gαi1-Rluc), 1 μg of Gβ3, 1 μg of Gγ9 containing C-terminal green fluorescent protein (Gγ9-GFP) mixed with 16 μL of PEI. At the same time, in order to examine the downstream β-arrestin2 signaling pathway mediated by dopamine D2 receptors, on the first day, a 6 cm culture dish was used for transfection with […] of dopamine D2 receptors containing C-terminal seaweed luciferase (D2-Rluc), […] of G protein-coupled receptor kinase 2 (GRK2), […] of β-arrestin2 containing N-terminal green fluorescent protein (GFP2-ARRB2) mixed with 14 μL of PEI. The next day, the confluent cells of a 6 cm culture dish were digested and reseeded into a 96-well plate with 100 μL of culture medium added to each well. On the third day, the drugs were added for test. The 96-well plate was taken out from the cell incubator to decant the culture medium, 40 μL of the substrate coelenterazine 400a (final concentration of 5 μM) was added to each well, and then 20 μL of different drugs were added sequentially from left to right to ensure that the final concentration of the drug decreased gradually from bottom to top, with two replicates per treatment. Finally, the prepared samples were loaded on machine for test. The machine readout value reflected the recruitment of β-arrestin2 to the membrane or the dissociation of G protein trimer. The former indicated the degree of activation of the β-arrestin2 signaling pathway downstream of the dopamine D2 receptors, and the latter indicated the degree of activation of the G protein signaling pathway downstream of the dopamine D2 receptors.
In general terms: In BRET a luciferase serves as donor, and the signal depends on an acceptor being close.

Experiment [2] addresses T1, dopamine D2 receptors. The experiment is described as follows: Dopamine D2 receptor Gαi1 BRET (G protein trimer dissociation). The format is cell-based. Conditions: for Emax: relative to endogenous ligand dopamine, read-out: Gαi1 BRET Emax % ± SEM. Here is the method:
as §1

Experiment [3] has as its target T1, dopamine D2 receptors. The experiment is described as follows: Dopamine D2 receptor radioligand competition binding assay ([3H]-Methylspiperone). The following applies: [3H]-Methylspiperone 0.3 to 0.5 nM, 293T membranes. Here is the method:
The affinity of the compounds of the present disclosure for dopamine D2 receptors was determined by a radioligand competition binding assay.
In the first step, a cell membrane component containing specific dopamine D2 receptors was prepared. A 10 cm culture dish was used for transfection with […] of dopamine D2 receptors and 40 μL of polyethylenimine (PEI hereafter). […] A vacuum pump was used to suck off the culture medium, 3 mL of lysis buffer was added to each culture dish, and the cells were placed in a 4° C. cold room for 10 minutes. After the cells were detached, the cells were transferred to a 15 mL centrifuge tube and centrifuged at 1500 rpm for 5 minutes at 4° C., and the supernatant was discarded. The cell pellet was transferred to a tissue homogenizer, and 3 mL of lysis buffer was added and fully ground until the cells were broken. Then, cell suspension was equally aliquoted into several EP tubes, centrifuged at 12000 rpm for 5 minutes at 4° C., and the supernatant was discarded. The precipitate was the cell membrane component containing the dopamine D2 receptors.
First, a standard binding buffer was added to the cell membrane component containing the dopamine D2 receptors, and the cell membrane was disrupted and resuspended with an electric tissue homogenizer. 30 μL of membrane protein suspension was added to each well of a 96-well plate. Then, 30 μL of different drugs were added to the 96-well plate sequentially from bottom to top to ensure that the final drug concentrations were 10^−5 M, 10^−6 M, 10^−7 M, 10^−8 M, 10^−9 M, and 0 M, with two replicates per treatment. Next, 30 μL of [3H]-Methylspiperone was added to each well of the 96-well plate. The plate was incubated at room temperature in the dark for 2 hours. Detection was conducted. The machine readout value reflected the amount of [3H]-Methylspiperone bound on the membrane, and after further data processing, the affinity Ki values of different compounds for the dopamine D2 receptors were obtained.
A general note: Loss of bound radioactivity is the signal in a displacement assay; it reports binding, not function.

The mark [4] stands for this setting: unit printed only in Cariprazine cell, read-out: β-arrestin2 BRET EC50.
Setting [5] is: read-out: Gαi1 BRET pEC50 ± SEM (converted).
[6] abbreviates: unit printed only in Cariprazine cell, read-out: Gαi1 BRET EC50.
The mark [7] stands for this setting: read-out: Affinity pKi ± SEM (converted).

Where two headings read alike, the source gives them in different places.

T1 sequence (P14416 whole entry): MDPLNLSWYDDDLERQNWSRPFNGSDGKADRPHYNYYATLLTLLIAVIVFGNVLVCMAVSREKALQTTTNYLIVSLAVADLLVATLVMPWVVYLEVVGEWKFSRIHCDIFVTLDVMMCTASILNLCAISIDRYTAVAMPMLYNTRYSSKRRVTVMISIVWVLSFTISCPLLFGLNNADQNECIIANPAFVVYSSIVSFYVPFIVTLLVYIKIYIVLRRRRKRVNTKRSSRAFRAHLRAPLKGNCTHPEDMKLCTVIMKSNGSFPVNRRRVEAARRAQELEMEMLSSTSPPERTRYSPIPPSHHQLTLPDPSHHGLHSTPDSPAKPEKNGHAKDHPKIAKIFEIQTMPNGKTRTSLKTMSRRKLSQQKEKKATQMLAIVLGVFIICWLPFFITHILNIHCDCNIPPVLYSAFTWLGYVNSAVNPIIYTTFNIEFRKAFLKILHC

In the case of `CCOc1cccc2c1cc1n2CCN(CCCCOc2ccc3ccc(=O)[nH]c3c2)C1` [I-C10, 7-(4-(9-ethoxy-3,4-dihydropyrazino[1,2-a]indol-2(1H)-yl)butoxy)quinolin-2(1H)-one], the Emax stood at 49% at dopamine D2 receptors [1] and 20% on dopamine D2 receptors [2]. Further, the EC50 at dopamine D2 receptors [1] (setting [4]) was 828 nM; at dopamine D2 receptors [2] (setting [5]) it was 120 nM; on dopamine D2 receptors [2] (setting [6]), 118 nM.

For the compound `CCOc1cccc2c3c(oc12)CN(CC[C@H]1CC[C@H](NC(=O)N(C)C)CC1)CC3` [I-A17, 3-(trans-4-(2-(8-ethoxy-3,4-dihydrobenzofuro[2,3-c]pyridin-2(1H)-yl)ethyl)cyclohexyl)-1,1-dimethylurea], the Emax on dopamine D2 receptors [1] turned out to be 29%; at dopamine D2 receptors [2], 49%. Moreover, the EC50 was 6.7 nM at dopamine D2 receptors [1] (setting [4]), 3.67 nM on dopamine D2 receptors [2] (setting [5]) and 4.37 nM on dopamine D2 receptors [2] (setting [6]).

Take `COc1cccc2c1nc1n2CCN(CCCOc2ccc3c(c2)NC(=O)CC3)C1` [I-D4, 7-(3-(9-methoxy-3,4-dihydrobenzo[4,5]imidazo[1,2-a]pyrazin-2(1H)-yl)propoxy)-3,4-dihydroquinolin-2(1H)-one]: the maximum response (Emax) at dopamine D2 receptors [1] turned out to be 89%; on dopamine D2 receptors [2] it was 81%. Further, the EC50 on dopamine D2 receptors [1] (setting [4]) was found to be 33.6 nM; on dopamine D2 receptors [2] (setting [6]), 159 nM.

As to `CCOc1cccc2c3c([nH]c12)CN(CCCCOc1ccc2ccc(=O)[nH]c2c1)CC3` [I-B2, 7-(4-(8-ethoxy-1,3,4,9-tetrahydro-2H-pyrido[3,4-b]indol-2-yl)butoxy)quinolin-2(1H)-one], the Ki on dopamine D2 receptors [3] (read-out: Affinity Ki) was 78.9 nM; at dopamine D2 receptors [3] (setting [7]) it was 77.6 nM.

As to `COc1cccc2c3c([nH]c12)CN(CCCOc1ccc2c(c1)NC(=O)CC2)CC3` [I-B5, 7-(3-(8-methoxy-1,3,4,9-tetrahydro-2H-pyrido[3,4-b]indol-2-yl)propoxy)-3,4-dihydroquinolin-2(1H)-one], the results for the Emax on dopamine D2 receptors [1] and on dopamine D2 receptors [2] were 76% and 35%, respectively. Besides, the EC50 came to 6.53 nM on dopamine D2 receptors [1] (setting [4]) and 43.6 nM on dopamine D2 receptors [2] (setting [6]).

For `COc1cccc2c3c(oc12)CN(CCCCOc1ccc2ccc(=O)n(C)c2c1)CC3` [I-A4, 7-(4-(8-methoxy-3,4-dihydrobenzofuro[2,3-c]pyridin-2(1H)-yl)butoxy)-1-methylquinolin-2(1H)-one], on dopamine D2 receptors [1], the “β-arrestin2 BRET pEC50 ± SEM” value is given as “(7.17 ± 0.18)” and the Emax worked out at 65%. Also, the EC50 on dopamine D2 receptors [1] (setting [4]) was 81.2 nM. On dopamine D2 receptors [2], the “Gαi1 BRET pEC50 ± SEM” value is on record as “(6.16 ± 0.06)” and the Emax worked out at 55%. Further, at dopamine D2 receptors [2] (setting [6]), the EC50 came to 709 nM.

For the compound `COc1cccc2c3c([nH]c12)CN(CC1(O)CCCCC1)CC3` [I-B9, 1-((8-methoxy-1,3,4,9-tetrahydro-2H-pyrido[3,4-b]indol-2-yl)methyl)cyclohexan-1-ol], the Emax stood at 51% at dopamine D2 receptors [1] and 14% on dopamine D2 receptors [2]. The EC50 is 133 nM at dopamine D2 receptors [1] (setting [4]), 61.7 nM at dopamine D2 receptors [2] (setting [5]) and 43.3 nM on dopamine D2 receptors [2] (setting [6]).

With `COc1cccc2c1nc1n2CCN(CCCCOc2ccc3c(c2)NC(=O)CC3)C1` [I-D2, 7-(4-(9-methoxy-3,4-dihydrobenzo[4,5]imidazo[1,2-a]pyrazin-2(1H)-yl)butoxy)-3,4-dihydroquinolin-2(1H)-one], the EC50 at dopamine D2 receptors [1] (read-out: β-arrestin2 BRET pEC50 ± SEM (converted)) was 69.2 nM; on dopamine D2 receptors [1] (setting [4]), 70.1 nM; on dopamine D2 receptors [2] (setting [5]), 324 nM; on dopamine D2 receptors [2] (setting [6]), 355 nM. Besides, the maximum response (Emax) on dopamine D2 receptors [1] was 106%; on dopamine D2 receptors [2] it was 71%.

In the case of `COc1cccc2c3c(oc12)CN(CCNC(=O)C1CCOCC1)CC3` [I-A14, N-(2-(8-methoxy-3,4-dihydrobenzofuro[2,3-c]pyridin-2(1H)-yl)ethyl)tetrahydro-2H-pyran-4-carboxamide], the Ki on dopamine D2 receptors [3] (read-out: Affinity Ki) amounted to 752 nM.

`COc1cccc2c1nc1n2CCN(CC[C@H]2CC[C@H](NC(=O)N(C)C)CC2)C1` [I-D6, 3-(trans-4-(2-(9-methoxy-3,4-dihydrobenzo[4,5]imidazo[1,2-a]pyrazin-2(1H)-yl)ethyl)cyclohexyl)-1,1-dimethylurea]: the Ki on dopamine D2 receptors [3] (read-out: Affinity Ki) was 16.8 nM; at dopamine D2 receptors [3] (setting [7]) it was 12.9 nM.

For the compound `COc1cccc2c1nc1n2CCN(CCCOc2ccc3ccc(=O)[nH]c3c2)C1` [I-D3, 7-(3-(9-methoxy-3,4-dihydrobenzo[4,5]imidazo[1,2-a]pyrazin-2(1H)-yl)propoxy)quinolin-2(1H)-one], the results for the Emax on dopamine D2 receptors [1] and at dopamine D2 receptors [2] were 97% and 71%, respectively. Further, the EC50 at dopamine D2 receptors [1] (setting [4]) is 18.3 nM; on dopamine D2 receptors [2] (setting [6]) it was 130 nM.

In the case of `COc1cccc2c1cc1n2CCN(CC2(O)CCCCC2)C1` [I-C12, 1-((9-methoxy-3,4-dihydropyrazino[1,2-a]indol-2(1H)-yl)methyl)cyclohexan-1-ol], the Emax was determined as 52% at dopamine D2 receptors [1] and 66% on dopamine D2 receptors [2]. In addition, the EC50 at dopamine D2 receptors [1] (setting [4]) is 54.4 nM; on dopamine D2 receptors [2] (setting [5]), 38.9 nM; at dopamine D2 receptors [2] (setting [6]) it was 23.4 nM.

For the compound `CCOc1cccc2c3c([nH]c12)CN(CCCOc1ccc2c(c1)NC(=O)CC2)CC3` [I-B6, 7-(3-(8-ethoxy-1,3,4,9-tetrahydro-2H-pyrido[3,4-b]indol-2-yl)propoxy)-3,4-dihydroquinolin-2(1H)-one], the “Affinity pKi ± SEM” value at dopamine D2 receptors [3] is reported as “(6.58 ± 0.41)”. Moreover, the Ki at dopamine D2 receptors [3] (read-out: Affinity Ki) was 266 nM.

As to `CCOc1cccc2c1cc1n2CCN(CC[C@H]2CC[C@H](NC(=O)N(C)C)CC2)C1` [I-C11, 3-(trans-4-(2-(9-ethoxy-3,4-dihydropyrazino[1,2-a]indol-2(1H)-yl)ethyl)cyclohexyl)-1,1-dimethylurea], the Emax at dopamine D2 receptors [1] turned out to be 45%; on dopamine D2 receptors [2] it was 23%. Further, the figures for the EC50 on dopamine D2 receptors [1] (setting [4]) and at dopamine D2 receptors [2] (setting [6]) were 128 nM and 39.8 nM, respectively.

Take `COc1cccc2c1nc1n2CCN(CCCCOc2ccc3ccc(=O)[nH]c3c2)C1` [I-D1, 7-(4-(9-methoxy-3,4-dihydrobenzo[4,5]imidazo[1,2-a]pyrazin-2(1H)-yl)butoxy)quinolin-2(1H)-one]: the Emax turned out to be 100% on dopamine D2 receptors [1] and 77% on dopamine D2 receptors [2]. Also, the EC50 on dopamine D2 receptors [1] (setting [4]) is 56 nM; on dopamine D2 receptors [2] (setting [5]) it was 263 nM; at dopamine D2 receptors [2] (setting [6]) it was 267 nM.

In the case of `COc1cccc2c1cc1n2CCN(C/C=C/COc2ccc3c(c2)NC(=O)CC3)C1` [I-C6, (E)-7-((4-(9-methoxy-3,4-dihydropyrazino[1,2-a]indol-2(1H)-yl)but-2-en-1-yl)oxy)-3,4-dihydroquinolin-2(1H)-one], the Emax on dopamine D2 receptors [1] is 92%; on dopamine D2 receptors [2], 49%. Moreover, the values for the EC50 at dopamine D2 receptors [1] (setting [4]) and at dopamine D2 receptors [2] (setting [6]) were 2.45 nM and 276 nM, respectively.

Consider `COc1cccc2c1nc1n2CCN(C/C=C/COc2ccc3c(c2)NC(=O)CC3)C1` [I-D5, (E)-7-((4-(9-methoxy-3,4-dihydrobenzo[4,5]imidazo[1,2-a]pyrazin-2(1H)-yl)but-2-en-1-yl)oxy)-3,4-dihydroquinolin-2(1H)-one], for which the Emax worked out at 66% at dopamine D2 receptors [1] and 46% on dopamine D2 receptors [2]. Also, the EC50 on dopamine D2 receptors [1] (setting [4]) is 38.8 nM; at dopamine D2 receptors [2] (setting [5]), 162 nM; on dopamine D2 receptors [2] (setting [6]), 160 nM.

As for `COc1cccc2c1nc1n2CCN(CC2(O)CCCCC2)C1` [I-D7, 1-((9-methoxy-3,4-dihydrobenzo[4,5]imidazo[1,2-a]pyrazin-2(1H)-yl)methyl)cyclohexan-1-ol], the Emax at dopamine D2 receptors [1] worked out at 41%; on dopamine D2 receptors [2], 67%. In addition, the EC50 was 180 nM on dopamine D2 receptors [1] (setting [4]), 95.5 nM on dopamine D2 receptors [2] (setting [5]) and 79 nM at dopamine D2 receptors [2] (setting [6]).

The term Emax denotes the size of the effect at its maximum, as opposed to the concentration needed.
